Assay results reported in patent US20240316187A1, “PROTEINS IDENTIFIED FROM BARN DUST EXTRACT FOR THE PREVENTION AND TREATMENT OF DISEASES” (Helmholtz Zentrum München - Deutsches Forschungszentrum für …, priority 2021, published 2024).
Entries after “also recorded” stand apart in the source; their conditions may differ.

T1: 15N-bOBP (Bos taurus, UniProt P07435)
T1 construct: 6xHis (N, cleaved yes); Thioredoxin (Trx) (N, cleaved yes); TEV cleavage site (N, cleaved yes); made in house; host or cells: E. coli BL21 (M9 minimal medium for 15N labelling)
T1 sequence (P07435 with tags, fused parts or gaps): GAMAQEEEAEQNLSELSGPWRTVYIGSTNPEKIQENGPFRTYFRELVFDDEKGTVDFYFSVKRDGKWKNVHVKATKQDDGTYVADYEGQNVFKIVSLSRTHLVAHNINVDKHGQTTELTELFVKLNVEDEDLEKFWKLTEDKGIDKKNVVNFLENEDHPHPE

B1: OBP: Recombinant bovine odorant-binding protein, lipocalin family, without ligand (protein, listed as Bos taurus)
chain: AQEEEAEQNLSELSGPWRTVYIGSTNPEKIQENGPFRTYFRELVFDDEKGTVDFYFSVKRDGKWKNVHVKATKQDDGTYVADYEGQNVFKIVSLSRTHLVAHNINVDKHGQTTELTELFVKLNVEDEDLEKFWKLTEDKGIDKKNVVNFLENEDHPHPE

How the values were obtained:
[1] = target: T1, 15N-bOBP; experiment: NMR binding studies (1H,15N-HSQC titration); conditions: 200 μM 15N-bOBP alone or in presence of 1 mM and 2 mM fatty acid, pH 6.5, 25° C.
Method: NMR binding studies. Overlay of ^1H, […] spectra of ^15N-bOBP alone and in presence of 5- and 10-fold excess of (E)-12-oxoheptadec-10-enoic acid. Arrow and inlet show CSP of exemplary peak. Arrows and inlets show CSP of exemplary peaks.
NMR measurements were performed in 3 mm tubes at 25° C. on a Bruker Avance III spectrometer operating at 600 MHz ^1H frequencies using H/N/C triple-resonance cryogenic probes. To confirm fatty acid binding, two-dimensional ^1H, ^15N heteronuclear single quantum correlation (HSQC) spectra were recorded of 200 μM ^15N-bOBP in 20 mM phosphate buffer pH 6.5, 50 mM NaCl, 1 mM β-mercaptoethanol and 10% (v/v) D20 alone or in presence of 1 mM and 2 mM fatty acid.

[2] = tested on: Balb/c mice sensitized with OVA; experiment: OVA allergic asthma model, intranasal application of test substance; assay type: in vivo, mouse; conditions: for Bronchoalveolar lavage (BAL) eosinophil numbers / AHR to increasing doses of methacholine: 12 intranasal applications d0-d26, analysis day 28; for Bronchoalveolar lavage (BAL) eosinophil numbers: FIG. 10; for AHR to increasing doses of methacholine: FlexiVent, FIG. 11
Method: Control mice were sham sensitized to PBS. Error bars reflect SEM. P values reflect one-way ANOVA, *: p value<0.05, **: p value<0.01; (FA: (E)-12-oxoheptadec-10-enaic acid).
Control mice were sham sensitized to PBS. Error bars reflect SEM. (FA: (E)-12-oxoheptadec-10-enaic acid).
Balb/c mice were first be sensitized with 10 μg OVA in Alum i.p. on day 0, 7 and 14. Three consecutive intranasal challenges with 100 μg OVA on day 25, 26 and 27, with analysis being undertaken on day 28, follows. From d0-d26 there were 12 consecutive intranasal applications of test substance. Asthma pathogenesis was assessed using methacholine lung function challenge to examine AHR as undertaken in allergic asthma patients. Furthermore, pathological manifestations such as eosinophilia was assessed. • Sensitzation: 10 μg valbumin (OVA Grade VI, Sigma, Stainheim, D) dissolved in 100 μl PBS on days 0, 7 and 14 of the assay protocol together with 100 μl (1 mg) of the adjuvant aluminium hydroxyde (Al(OH)3) (Inject Alum, Pierce, USA). • Challenge: OVA Grade V in 100 μg/mouse in 25 μl (concentration: 4 mg/ml)
Eosiniphilnumbers in the Bronchoalveolar lavage (BAL) are shown in FIG. 10. • Airway Hyperresponsivenes (AHR): Dynamic resistance and compliance (in response to increasing doses of MCh) FlexiVent results are shown in FIG. 11.

[3] = target: T2, human TLR2 (Homo sapiens, UniProt O60603); experiment: Activation of TLR-2, NFkB induction in HEK-Blue-hTLR2 cells (SEAP reporter); assay type: cell-based; conditions: human TLR2 transfected HEK cells; positive control Pam3CSK4; FIG. 5
T2 construct: host or cells: HEK293 (HEK-Blue-hTLR2)
T2 sequence (O60603 21-784): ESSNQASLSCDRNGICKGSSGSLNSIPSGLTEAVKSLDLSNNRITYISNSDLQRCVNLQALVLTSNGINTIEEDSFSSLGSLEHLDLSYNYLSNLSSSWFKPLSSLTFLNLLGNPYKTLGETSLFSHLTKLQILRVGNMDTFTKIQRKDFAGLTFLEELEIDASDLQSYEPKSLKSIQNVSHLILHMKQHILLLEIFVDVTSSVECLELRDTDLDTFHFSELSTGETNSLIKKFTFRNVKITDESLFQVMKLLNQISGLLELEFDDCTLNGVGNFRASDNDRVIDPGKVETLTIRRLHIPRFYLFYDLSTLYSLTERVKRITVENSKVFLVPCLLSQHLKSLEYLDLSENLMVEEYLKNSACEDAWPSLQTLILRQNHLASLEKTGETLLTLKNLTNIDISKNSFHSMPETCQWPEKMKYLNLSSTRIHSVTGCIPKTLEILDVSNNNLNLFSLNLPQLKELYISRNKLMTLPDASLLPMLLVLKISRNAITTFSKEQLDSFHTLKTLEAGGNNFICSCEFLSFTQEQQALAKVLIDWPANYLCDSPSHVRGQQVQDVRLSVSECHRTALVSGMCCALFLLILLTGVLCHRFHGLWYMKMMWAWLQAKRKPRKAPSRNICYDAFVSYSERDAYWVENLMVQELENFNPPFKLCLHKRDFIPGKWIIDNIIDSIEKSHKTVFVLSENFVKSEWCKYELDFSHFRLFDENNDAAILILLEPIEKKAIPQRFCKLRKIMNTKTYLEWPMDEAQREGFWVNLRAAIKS
From the text: NKfB induction in HEK-hTLR2. Dotted line: PBS/DMSO (negative control); Pam3CSK4=positive control; Farm dust (Hec 20)=Cow shed dust extract>10 kDa autoclaved; Bosd2+FA=His-Trx-Bos d2+€-12-oxoheptadec-10-enaic acid; OBP+FA=bOBP+€-12-oxoheptadec-10-enaic acid; OBP=bOBP; FA=€-12-oxoheptadec-10-enaic acid.
HEK-Blue™-hTLR2 cells (InvivoGen) are obtained by co-transfection of the human TLR2 and SEAP (secreted embryonic alkaline phosphatase) genes into HEK293 cells. The SEAP reporter gene is placed under the control of the IFN-β minimal promoter fused to five NF-κB and AP-1-binding sites. Additionally, the CD14 co-receptor gene was transfected into these cells to enhance the TLR2 response. Stimulation with a TLR2 ligand activates NF-κB and AP-1, which in turn induce the production of SEAP. Levels of SEAP are determined with HEK-Blue™ Detection, a cell culture medium that allows for real-time detection of SEAP.

[4] = tested on: 16HBE cells; experiment: TEER assay, epithelial barrier function; assay type: cell-based; conditions: 20 μg/ml, 24 hours after treatment; compared with cow SDE at 200 μg/ml; FIG. 6
Method: TEER Assay: 16HBE: untreated cells; Farm dust (Hec 20)=Cow shed dust extract>10 kDa autoclaved, 200 μg/ml; Bosd2+FA=His-Trx-Bos d2+(E)-12-oxoheptadec-10-enaic acid, 20 μg/ml; OBP+FA=bOBP+(E)-12-oxoheptadec-10-enaic acid, 20 μg/ml.
To examine the effect of the Lipoproteins Bos d2+FA and OBP+FA on the epithelial barrier function as measured by transepithelial electrical resistance (TEER). 16HBE (100.000 (1×10*5)) cells were seeded on transwell inserts in […] medium (MEM with Earle's salt, 10% FBS (during cultivation only, during assay no FBS), 1% L-Glutamine, 1% Penicillin/Streptomycin). After 24 hours of culture, cells were treated with the indicated compounds, and 24 hours after treatment, TEER values were determined using an EVOM2 epithelial voltohmmeter (World Precision Instruments). Cow SDE was used at 200 μg/ml, all other compounds were used at 20 μg/ml.

[5] = tested on: OVA pulsed BMDCs cocultured with OT-II CD4 T cells; experiment: DC/T-cell interaction assay; assay type: cell-based, mouse; conditions: pre-treatment of BMDCs (two treatments), LPS stimulation, FIG. 8
Method: Effect of lipoprotein candidates on DC T-cell interaction: OVA pulsed BMDCs enhanced OT-II CD4 T cell number (Medium), which was prevented by pre-treatment of BMDCs with, Bos d2+FA and OPB+FA. CD4+ count: For each sample 10400 counting beads were added to tube and 5000 beads were counted for recording. CD4+ count indicates the amount of CD4+ cells contained in the volume needed to count 5000 beads. (FA: (E)-12-oxoheptadec-10-enaic acid).
DCs are professional antigen presenting cells crucial for the priming of CD4 T cells in asthma and allergy. The mouse primary bone marrow derived DCs (BMDCs) were utilized to evaluate the ability of the test substances to modulate their activation. DC activation is monitored their ability to regulate the differentiation and proliferation of OVA-specific CD4 T cells (OT-II) following DC pulsing with the OVA peptide.
For this assay, bone marrow derived DCs are isolated from C57B16 mice and put into culture. […]
Isolate bone marrow from wild-type C57BL/6 mouse and seed cells in 10 ml Petri dishes in 10 ml volume (2 million cells/dish) containing 20 ng/ml rmGM-CSF. […] Cells were then collected and counted with the help of counting beads and seeded in V bottom 96 well plates (10000 cells/well) and pulsed with OVA peptide (323-339) for 3 hours. […] 20000 stained T Cells were cocultured with DCs for […], and T Cells were then analyzed with flow cytometry.

NFkB induction in HEK-hTLR2 (TLR2 activation) [3]	Molecule	chemical shift perturbations (CSP) in 1H,15N-HSQC spectra [1]	Bronchoalveolar lavage (BAL) eosinophil numbers [2]	AHR to increasing doses of methacholine [2]	transepithelial electrical resistance (TEER) [4]	OT-II CD4 T cell number (CD4+ count) [5]	AHR effect compared with OBP alone ([2]; same model as E7)
–	CCCCCC(=O)/C=C/CCCCCCCCC(=O)O [FA, (E)-12-oxoheptadec-10-enoic acid]	chemical shift perturbations (CSP) which is indicative for ligand binding	does not have an effect	an effect on AHR	–	–	–
even stronger effect than the cow SDE	Bos d2+FA: Lipoprotein complex of His-Trx-Bos d2 with (E)-12-oxoheptadec-10-enoic acid	–	–	–	stronger effect, at much lower concentration	prevented	–
even stronger effect than the cow SDE	OBP+FA: Lipoprotein complex of bOBP incubated with 5 fold molar excess of (E)-12-oxoheptadec-10-enoic acid, dialysed	–	prevented allergic asthma	significant effect; also recorded: prevented allergic asthma	stronger effect, at much lower concentration	prevented	slightly better than for OBP alone

Molecule	NFkB induction in HEK-hTLR2 (TLR2 activation) [3]	chemical shift perturbations (CSP) in 1H,15N-HSQC spectra [1]	Bronchoalveolar lavage (BAL) eosinophil numbers [2]	AHR to increasing doses of methacholine [2]	transepithelial electrical resistance (TEER) [4]	OT-II CD4 T cell number (CD4+ count) [5]	AHR effect compared with OBP alone ([2]; same model as E7)
B1	had an effect as well, but higher concentrations are needed	–	prevented allergic asthma	significant effect; also recorded: prevented allergic asthma	–	–	–
